US20240417407A1, “FUROINDAZOLE DERIVATIVES AS GPR84 ANTAGONISTS” (Bayer Aktiengesellschaft, priority 2021, published 2024)

Biological target: T1, human GPR84 receptor (Homo sapiens, UniProt Q9NQS5)
T1 construct: frozen aliquots prepared by acCELLerate; host or cells: CHO-K1
Assay: cAMP HTRF assay for identification of cellular GPR84 antagonists
Assay type: cell-based
Conditions: CHO-K1 cells stably expressing human GPR84; Forskolin plus agonist 6-OAU; cAMP HTRF readout; average or median values
From the text: cAMP HTRF® Assay for Identification of Cellular GPR84 Antagonists
By using a Homogenous Time-Resolved Fluorescence (HTRF®) based assay (#62AM5PEJ, Cisbio, Condolet, France) the inhibition of the Gi-coupled GPR84 receptor can be detected. CHO-K1 cells stably expressing human GPR84 receptor (purchased from DiscoveRx, now Eurofins) were used and treated with Forskolin (F6886, Sigma, Germany) to stimulate membrane adenylyl cyclases and thereby unspecific cAMP formation. Activation of the Gi-coupled GPR84 by a natural or small molecule agonist (e.g. 6-n-octyl aminouracile, inhouse) results in inhibition of cellular cAMP formation which can be released again by antagonists to this receptor. Detection and quantification of cellular cAMP levels in this HTRF assay is achieved by interaction between a fluorescent cAMP tracer (cAMP-d2) and an Eu-cryptate labelled anti-cAMP antibody. Following excitation at 337 nm this pairing allows for the generation of a fluorescence resonance energy transfer (FRET) between the partners and results in FRET induced emissions at 665 nm and 620 nm, the latter representing background signal by Eu-cryptate labelled anti-cAMP antibody. Maximal signal is obtained in the absence of any cellular cAMP (no competition for the binding of the tracer to the antibody). Given the combination of the Gi coupling properties of GPR84 and the competitive nature of the detection system agonist treatment should result in an increase in the HTRF signal due to lowered cAMP levels. Any signal decrease in the presence of Forskolin, agonist and compound is indicative of antagonist mediated abrogation of GPR84 signalling.
For the assay, frozen aliquots of CHO-K1 cells expressing hGPR84 (prepared by acCELLerate, Hamburg, Germany) were thawed and a cell suspension (1.67E+06 cells/mL) in assay media (Ham's F12 Nutrient Mix, Thermo Fisher Scientific, Waltham, USA; 5% fetal calf serum, Biomol, Hamburg, Germany) containing cAMP-d2 (dilution 1:20, supplied with the kit #62AM5PEJ, Cisbio, Condolet, France) was prepared. After recovery of cells for 20 minutes at 37° C., 3 μL/well cell suspension including cAMP-d2 were added to a pre-dispensed assay plate (Greiner Bio-One, Kremsmuenster, Austria) containing 50 nl/well test compound in 100% DMSO or 100% DMSO as control. This was followed by a 30 minutes incubation step at room temperature. […] The reaction was stopped by addition of 3 μL/well lysis buffer containing cAMP Eu-Cryptate antibody (dilution 1:20) (both supplied with the kit #62AM5PEJ, Cisbio, Condolet, France). To enable complete lysis, plates were incubated for 60 minutes at room temperature before measurement in an HTRF reader, e.g. a PHERAstar (BMG Labtech, Ortenberg, Germany).
From the fluorescence emissions at 665 nm (FRET) and at 620 nm (background signal of Eu-cryptate) the ratio (emission at 665 nm divided by emission at 620 nm×10000) was calculated and the data were normalized (reaction without test compound, only 100% DMSO=0% inhibition; all other assay components except agonist=100% inhibition). For dose response testing on the same microtiter plate, compounds were tested at 11 different concentrations in the range of 20 μM to 0.07 nM (20 μM, 5.7 μM, 1.6 μM, 0.47 μM, 0.13 μM, 38 nM, 11 nM, 3.1 nM, 0.89 nM, 0.25 and 0.07 nM; dilution series prepared before the assay at the level of the 100-fold conc. stock solutions by serial 1:3.5 dilutions in 100% DMSO) in duplicate values for each concentration. IC50 values were calculated by 4-parameter fitting using a commercial software package (Genedata Screener, Basel, Switzerland).
Examples were tested in selected biological assays one or more times. […]

T1 sequence (Q9NQS5 whole entry): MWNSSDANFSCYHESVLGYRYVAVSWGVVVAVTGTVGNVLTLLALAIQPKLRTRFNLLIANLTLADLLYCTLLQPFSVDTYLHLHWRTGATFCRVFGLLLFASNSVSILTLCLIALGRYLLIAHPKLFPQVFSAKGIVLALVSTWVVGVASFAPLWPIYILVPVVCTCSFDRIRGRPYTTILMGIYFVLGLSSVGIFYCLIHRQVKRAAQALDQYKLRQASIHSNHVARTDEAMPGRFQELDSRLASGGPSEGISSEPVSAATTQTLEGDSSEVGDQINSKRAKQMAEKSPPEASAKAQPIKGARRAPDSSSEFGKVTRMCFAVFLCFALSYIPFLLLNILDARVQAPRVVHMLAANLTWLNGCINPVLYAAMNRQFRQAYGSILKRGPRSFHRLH

Compound	IC50
O=C(NC[C@@H]1CCCO1)c1oc2ccc3cn(Cc4ccccn4)nc3c2c1CO [Example 41, 8-(hydroxymethyl)-2-(pyridin-2-ylmethyl)-N-[(2S)-tetrahydrofuran-2-ylmethyl]-2H-furo[2,3-g]indazole-7-carboxamide]	530 nM
N#Cc1ccnc(CNC(=O)c2oc3ccc4cn(C[C@H]5COCCO5)nc4c3c2C(F)(F)F)c1 [Example 23]	250 nM
Cc1cn(CCNC(=O)c2oc3ccc4cn(C[C@H]5COCCO5)nc4c3c2C(F)(F)F)nn1 [Example 26]	14000 nM
O=C(NCc1cocn1)c1oc2ccc3cn(C[C@H]4COCCO4)nc3c2c1C(F)(F)F [Example 10]	100 nM
Cc1ccc(Cn2cc3ccc4oc(C(=O)NC[C@@H]5COCCO5)c(C(F)(F)F)c4c3n2)cn1 [Example 3, N-{[(2R)-1,4-dioxan-2-yl]methyl}-2-[(6-methylpyridin-3-yl)methyl]-8-(trifluoromethyl)-2H-furo[2,3-g]indazole-7-carboxamide]	7 nM
Cc1cc2oc(C(=O)NCc3ccn(C)n3)c(C(F)(F)F)c2c2nn(Cc3ccccn3)cc12 [Example 34]	150 nM
Cc1ccc(Cn2cc3c(C)cc4oc(C(=O)NC[C@@H]5CCCO5)c(C(F)(F)F)c4c3n2)nc1 [Example 35]	4 nM
N#Cc1ccc(CNC(=O)c2oc3ccc4cn(C[C@H]5COCCO5)nc4c3c2C(F)(F)F)nc1 [Example 22]	13 nM
O=C(NCCc1cccnc1)c1oc2ccc3cn(C[C@H]4COCCO4)nc3c2c1C(F)(F)F [Example 28, 2-{[(2S)-1,4-dioxan-2-yl]methyl}-N-[2-(pyridin-3-yl)ethyl]-8-(trifluoromethyl)-2H-furo[2,3-g]indazole-7-carboxamide]	3580 nM
Cc1ccc(Cn2cc3c(C)cc4oc(C(=O)NC[C@@H]5COCCO5)c(C(F)(F)F)c4c3n2)nc1 [Example 36, N-{[(2R)-1,4-dioxan-2-yl]methyl}-4-methyl-2-[(5-methylpyridin-2-yl)methyl]-8-(trifluoromethyl)-2H-furo[2,3-g]indazole-7-carboxamide]	5 nM
Cc1cnc(CNC(=O)c2oc3ccc4cn(C[C@H]5COCCO5)nc4c3c2C(F)(F)F)cn1 [Example 20, 2-{[(2S)-1,4-dioxan-2-yl]methyl}-N-[(5-methylpyrazin-2-yl)methyl]-8-(trifluoromethyl)-2H-furo[2,3-g]indazole-7-carboxamide]	18 nM
Cn1cnc(CNC(=O)c2oc3ccc4cn(C[C@H]5COCCO5)nc4c3c2C(F)(F)F)c1 [Example 11]	75 nM
Cc1ccc(Cn2cc3c(C)cc4oc(C(=O)NCc5ncco5)c(C(F)(F)F)c4c3n2)nc1 [Example 37, 4-methyl-2-[(5-methylpyridin-2-yl)methyl]-N-[(1,3-oxazol-2-yl)methyl]-8-(trifluoromethyl)-2H-furo[2,3-g]indazole-7-carboxamide]	18 nM

The next lines start with the values.

IC50	Compound
13 nM	CC1CCC(CNC(=O)c2oc3ccc4cn(C[C@H]5COCCO5)nc4c3c2C(F)(F)F)O1 (mixture of isomers) [Example 7, 2-{[(2S)-1,4-dioxan-2-yl]methyl}-N-{[(2RS,5RS)-5-methyltetrahydrofuran-2-yl]methyl}-8-(trifluoromethyl)-2H-furo[2,3-g]indazole-7-carboxamide]
3490 nM	CS(=O)(=O)CCNC(=O)c1oc2ccc3cn(C[C@H]4COCCO4)nc3c2c1C(F)(F)F [Example 9]
1040 nM	O=C(NCCC1CC1)c1oc2ccc3cn(C[C@H]4COCCO4)nc3c2c1C(F)(F)F [Example 8]
16 nM	O=C(NC[C@@H]1COCCO1)c1oc2ccc3cn(C[C@H]4COCCO4)nc3c2c1C(F)(F)F [Example 1, N-{[(2R)-1,4-dioxan-2-yl]methyl}-2-{[(2S)-1,4-dioxan-2-yl]methyl}-8-(trifluoromethyl)-2H-furo[2,3-g]indazole-7-carboxamide]
490 nM	O=C(NCc1cncs1)c1oc2ccc3cn(C[C@H]4COCCO4)nc3c2c1C(F)(F)F [Example 13]
7 nM	O=C(NC[C@@H]1CCCO1)c1oc2ccc3cn(C[C@H]4COCCO4)nc3c2c1C(F)(F)F [Example 2]
